One experiment has as its target Coagulation factor XI (Homo sapiens, UniProt P03951). Kind of experiment: Inhibition of human factor 11a by spectrophotometric assay.
The nature of experiment [1]: Anticoagulant activity in human […] assessed as concentration required to double prothrombin time. The class given is functional.
Experiment [2] in a line: Anticoagulant activity in human […] assessed as concentration required to double activated partial thromboplastin time. The class given is functional.
The target of a further experiment is Prothrombin (Homo sapiens, UniProt P00734). Nature of the experiment: Inhibition of human thrombin using spectrozyme TH as substrate by spectrophotometric assay.
In a further experiment the target is Coagulation factor X (Homo sapiens, UniProt P00742). Nature of the experiment: Inhibition of human factor 10a by spectrophotometric assay.
Chain of Coagulation factor X (P00742 41-179 limits assumed): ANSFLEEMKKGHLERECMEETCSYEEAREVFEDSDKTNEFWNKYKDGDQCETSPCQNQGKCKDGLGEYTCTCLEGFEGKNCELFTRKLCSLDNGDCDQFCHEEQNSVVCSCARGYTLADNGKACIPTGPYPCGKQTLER
Chain of Coagulation factor X (P00742 235-488 limits assumed): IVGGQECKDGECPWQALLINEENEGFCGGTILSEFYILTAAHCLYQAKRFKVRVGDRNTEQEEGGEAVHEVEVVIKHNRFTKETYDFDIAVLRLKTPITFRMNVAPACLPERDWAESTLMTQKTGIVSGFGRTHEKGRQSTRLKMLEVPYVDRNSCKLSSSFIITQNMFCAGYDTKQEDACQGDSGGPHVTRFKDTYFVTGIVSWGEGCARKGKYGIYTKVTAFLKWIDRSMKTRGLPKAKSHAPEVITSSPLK

Structures are written as SMILES.

Chain of Coagulation factor XI (P03951 19-387 limits assumed): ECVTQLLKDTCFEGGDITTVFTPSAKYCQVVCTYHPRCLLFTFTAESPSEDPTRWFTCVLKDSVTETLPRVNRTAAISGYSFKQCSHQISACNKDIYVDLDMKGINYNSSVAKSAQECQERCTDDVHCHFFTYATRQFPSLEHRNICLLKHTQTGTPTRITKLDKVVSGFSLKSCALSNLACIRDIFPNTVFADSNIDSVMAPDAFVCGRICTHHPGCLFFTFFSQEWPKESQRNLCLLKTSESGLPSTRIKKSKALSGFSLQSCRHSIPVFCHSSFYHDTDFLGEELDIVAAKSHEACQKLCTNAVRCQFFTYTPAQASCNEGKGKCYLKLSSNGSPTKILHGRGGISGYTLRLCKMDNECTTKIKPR
Chain of Coagulation factor XI (P03951 388-625 limits assumed): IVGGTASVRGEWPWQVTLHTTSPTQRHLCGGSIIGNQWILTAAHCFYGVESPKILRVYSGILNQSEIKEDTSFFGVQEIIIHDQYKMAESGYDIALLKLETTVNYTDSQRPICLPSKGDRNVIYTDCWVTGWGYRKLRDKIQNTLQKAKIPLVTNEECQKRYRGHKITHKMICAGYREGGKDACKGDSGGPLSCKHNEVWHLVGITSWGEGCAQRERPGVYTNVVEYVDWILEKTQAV

Take `CCOC(=O)c1c(C)[nH]c2ccc(OCc3c(C(=O)OCC)c4cc(OS(=O)(=O)[O-])ccc4n3C(=O)OC(C)(C)C)cc12.[Na+]`: the values for the IC50 at Coagulation factor XI (read-out: IC50), against Prothrombin and at Coagulation factor X (read-out: IC50) were 220 µM, 425 µM and 229 µM, respectively. The 2PT in experiment [1] was determined as 1475 µM. Besides, the 2aPTT in experiment [2] worked out at 424 µM.

In the case of `CCOC(=O)c1c(COc2cc3c(C(=O)OCC)c(Cc4ccccc4)oc3cc2OC)[nH]c2ccc(OS(=O)(=O)[O-])cc12.[Na+]`, the IC50 amounted to 118 µM at Coagulation factor XI (read-out: IC50), 327 µM against Prothrombin and 195 µM on Coagulation factor X (read-out: IC50). The 2PT in experiment [1] was found to be 2361 µM. For the same molecule, the 2aPTT in experiment [2] was determined as 1021 µM.

Regarding `COc1cc2occ(C(=O)OC(C)(C)C)c2cc1OCc1nc2ccc(OS(=O)(=O)O)cc2s1`, the concentration for half-maximal inhibition (IC50) worked out at 124 µM on Coagulation factor XI (read-out: IC50), 146 µM against Prothrombin and 352 µM at Coagulation factor X (read-out: IC50).

Take `CCOC(=O)c1c(COc2cc3c(C(=O)OCC)c(COc4cc5c(C(=O)OCC)c(C)oc5cc4OC)oc3cc2OC)[nH]c2ccc(OS(=O)(=O)[O-])cc12.[Na+]`: the values for the IC50 at Coagulation factor XI (read-out: IC50), against Prothrombin and at Coagulation factor X (read-out: IC50) were 86.9 µM, 304 µM and 344 µM, respectively. Also, the 2PT in experiment [1] was 845 µM. The 2aPTT in experiment [2] was 755 µM.

For `Cc1nc2ccc(OCc3nc4ccc(OS(=O)(=O)[O-])cc4s3)cc2s1.[Na+]`, the half-inhibitory concentration (IC50) entry against Coagulation factor XI is “Not Active”; against Prothrombin it was 327 µM; against Coagulation factor X it was “Not Active”.
